The source of these data is article PMC4503722, “Novel Phenotypic Outcomes Identified for a Public Collection of Approved Drugs from a Publicly Accessible Panel of Assays” (PLoS ONE, 2015).

Read-outs that look alike come from different tables or passages of the source.

Assay [1] relates to HeLa cells. The assay can be described thus: cells. Type of assay: cell-based.
For assay [2], the system named is DLD-1. The assay can be described thus: cells. Type of assay: cell-based. As to conditions: basal.
Assay [3] deals with SW480. Description: cells. The class given is cell-based. The following applies: basal.
For assay [4], the system named is HCT116. Description: cells. Type of assay: cell-based. As to conditions: basal.
Assay [5] concerns HCT116 cells treated with a GSK3β inhibitor. Description: cells. As to conditions: for IC50/EC50, GSK3b inh pretreated_Viability ATP HCT116 (assay number 26): GSK3b inh pretreated. Type of assay: cell-based.
Assay [6] relates to Colo320. The assay can be described thus: cells. The class given is cell-based. The following applies: basal.
Assay [7] deals with HT-29. Description: cells. Type of assay: cell-based. The following applies: basal.
For assay [8], the system named is RKO. The assay can be described thus: cells. The class given is cell-based. As to conditions: basal.
For assay [9], the system named is SNU-C1. Description: cells. Type of assay: cell-based. The following applies: basal.
Assay [10] addresses T1, hp70S6K1 (RPS6KB1) (Homo sapiens, UniProt P23443).
T1 construct: purchased Cerep (LANCE kinase assay platform, contract assay)
The assay can be described thus: Cerep LANCE kinase assay hp70S6K1 (S1 assay 31). The class given is biochemical. On the technique in general: TR-FRET usually uses a lanthanide donor and a delayed reading to cut background.

Assay [11] concerns the target T2, hKDR (Homo sapiens, UniProt P35968).
T2 construct: purchased Cerep (LANCE kinase assay platform, contract assay)
The assay can be described thus: Cerep LANCE kinase assay hKDR (S1 assay 32). The class given is biochemical.

Assay [12] concerns the target T3, hJAK2 (Homo sapiens, UniProt O60674).
T3 construct: purchased Cerep (LANCE kinase assay platform, contract assay)
Description: Cerep LANCE kinase assay hJAK2 (S1 assay 33). Type of assay: biochemical.

The target in assay [13] is T4, hGSK3b (Homo sapiens, UniProt P49841).
T4 construct: purchased Cerep (LANCE kinase assay platform, contract assay)
Description: Cerep LANCE kinase assay hGSK3b (S1 assay 34). Type of assay: biochemical.

The target of assay [14] is T5, hFLT3 (Homo sapiens, UniProt P36888).
T5 construct: purchased Cerep (LANCE kinase assay platform, contract assay)
The assay can be described thus: Cerep LANCE kinase assay hFLT3 (S1 assay 35). Type of assay: biochemical.

Assay [15] relates to endothelial tube formation in co-cultures of ECFCs and ADSCs treated with VEGF. Description: cells. Type of assay: cell-based, human.
Assay [16] concerns ECFC/ADSC co-culture cell nuclei number.

Broadly, the IC50 is the point on the concentration scale where inhibition reaches its midpoint.
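Throughout, for Hela CellCycMod PI 4N summarized IC50: value tracks stimulation of 4N DNA content.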

T4 sequence (P49841 whole entry): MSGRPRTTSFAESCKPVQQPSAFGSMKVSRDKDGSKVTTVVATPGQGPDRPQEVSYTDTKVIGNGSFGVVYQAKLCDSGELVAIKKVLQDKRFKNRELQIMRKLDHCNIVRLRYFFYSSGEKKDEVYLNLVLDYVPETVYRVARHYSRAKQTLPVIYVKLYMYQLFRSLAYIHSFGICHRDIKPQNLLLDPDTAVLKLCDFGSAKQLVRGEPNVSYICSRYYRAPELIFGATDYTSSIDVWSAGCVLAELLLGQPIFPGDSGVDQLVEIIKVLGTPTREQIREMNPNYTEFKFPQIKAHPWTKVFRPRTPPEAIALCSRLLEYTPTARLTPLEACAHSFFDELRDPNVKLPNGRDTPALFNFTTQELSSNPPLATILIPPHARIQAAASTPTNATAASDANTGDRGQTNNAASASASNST
T3 sequence (O60674 whole entry): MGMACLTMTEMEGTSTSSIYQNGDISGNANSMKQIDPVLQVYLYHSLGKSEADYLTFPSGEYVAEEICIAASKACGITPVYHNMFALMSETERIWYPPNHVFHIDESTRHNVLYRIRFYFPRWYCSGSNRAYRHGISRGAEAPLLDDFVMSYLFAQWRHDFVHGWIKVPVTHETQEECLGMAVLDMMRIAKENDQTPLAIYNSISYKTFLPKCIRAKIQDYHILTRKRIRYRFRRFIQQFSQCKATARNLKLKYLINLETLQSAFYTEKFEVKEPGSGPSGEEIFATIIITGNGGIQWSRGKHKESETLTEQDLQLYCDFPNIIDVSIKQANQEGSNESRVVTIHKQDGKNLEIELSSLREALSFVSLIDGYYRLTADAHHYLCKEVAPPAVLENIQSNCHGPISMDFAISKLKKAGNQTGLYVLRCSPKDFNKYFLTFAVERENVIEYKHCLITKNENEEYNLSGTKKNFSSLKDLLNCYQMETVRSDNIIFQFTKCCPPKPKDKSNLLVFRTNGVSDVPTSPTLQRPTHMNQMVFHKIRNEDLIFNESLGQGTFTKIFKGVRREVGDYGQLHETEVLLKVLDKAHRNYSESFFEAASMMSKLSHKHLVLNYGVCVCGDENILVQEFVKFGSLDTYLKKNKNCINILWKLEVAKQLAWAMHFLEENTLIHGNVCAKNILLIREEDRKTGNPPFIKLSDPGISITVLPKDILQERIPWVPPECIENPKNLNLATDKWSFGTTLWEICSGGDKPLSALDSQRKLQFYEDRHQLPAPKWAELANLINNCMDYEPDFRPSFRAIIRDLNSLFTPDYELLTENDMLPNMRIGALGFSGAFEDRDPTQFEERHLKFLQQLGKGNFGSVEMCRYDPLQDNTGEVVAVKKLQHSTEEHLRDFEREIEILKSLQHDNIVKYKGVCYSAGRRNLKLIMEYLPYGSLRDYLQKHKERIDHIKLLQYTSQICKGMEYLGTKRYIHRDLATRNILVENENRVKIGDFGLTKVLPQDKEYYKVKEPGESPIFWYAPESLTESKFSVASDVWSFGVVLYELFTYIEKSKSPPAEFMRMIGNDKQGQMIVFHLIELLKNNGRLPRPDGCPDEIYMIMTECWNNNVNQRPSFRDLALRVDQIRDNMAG
T2 sequence (P35968 20-1356): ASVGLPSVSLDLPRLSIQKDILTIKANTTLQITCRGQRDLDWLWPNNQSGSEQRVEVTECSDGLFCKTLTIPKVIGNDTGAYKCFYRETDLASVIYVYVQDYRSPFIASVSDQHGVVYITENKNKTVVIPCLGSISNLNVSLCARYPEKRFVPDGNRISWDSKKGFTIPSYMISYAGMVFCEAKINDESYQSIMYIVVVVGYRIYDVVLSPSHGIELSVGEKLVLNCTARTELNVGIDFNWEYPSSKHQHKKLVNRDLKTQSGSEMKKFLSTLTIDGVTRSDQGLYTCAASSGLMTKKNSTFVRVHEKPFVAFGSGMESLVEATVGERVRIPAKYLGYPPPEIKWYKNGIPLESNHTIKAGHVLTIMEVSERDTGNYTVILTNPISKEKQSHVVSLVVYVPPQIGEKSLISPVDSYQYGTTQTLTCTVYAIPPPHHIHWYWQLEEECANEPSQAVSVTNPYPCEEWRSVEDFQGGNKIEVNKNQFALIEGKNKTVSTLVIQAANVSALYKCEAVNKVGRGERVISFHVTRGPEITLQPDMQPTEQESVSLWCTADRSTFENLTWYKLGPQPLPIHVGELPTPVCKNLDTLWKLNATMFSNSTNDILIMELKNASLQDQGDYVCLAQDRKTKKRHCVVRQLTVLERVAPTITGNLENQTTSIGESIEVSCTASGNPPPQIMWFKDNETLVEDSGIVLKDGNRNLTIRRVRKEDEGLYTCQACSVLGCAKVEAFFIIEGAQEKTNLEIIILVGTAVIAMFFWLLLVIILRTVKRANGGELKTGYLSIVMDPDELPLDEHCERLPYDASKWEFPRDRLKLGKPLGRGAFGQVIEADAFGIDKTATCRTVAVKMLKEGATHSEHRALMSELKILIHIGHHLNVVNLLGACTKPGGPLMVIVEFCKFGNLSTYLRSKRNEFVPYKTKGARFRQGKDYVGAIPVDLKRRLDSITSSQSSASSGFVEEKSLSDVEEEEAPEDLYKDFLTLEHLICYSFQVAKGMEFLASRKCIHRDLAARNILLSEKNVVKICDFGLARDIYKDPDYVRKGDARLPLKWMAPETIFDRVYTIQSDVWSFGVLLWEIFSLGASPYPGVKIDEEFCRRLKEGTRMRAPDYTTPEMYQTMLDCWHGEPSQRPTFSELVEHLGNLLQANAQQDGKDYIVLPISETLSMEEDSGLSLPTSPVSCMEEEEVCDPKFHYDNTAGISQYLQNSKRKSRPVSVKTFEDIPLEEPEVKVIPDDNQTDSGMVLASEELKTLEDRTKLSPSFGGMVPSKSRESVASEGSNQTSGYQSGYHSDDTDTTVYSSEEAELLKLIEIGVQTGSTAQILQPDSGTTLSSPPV
T5 sequence (P36888 27-993): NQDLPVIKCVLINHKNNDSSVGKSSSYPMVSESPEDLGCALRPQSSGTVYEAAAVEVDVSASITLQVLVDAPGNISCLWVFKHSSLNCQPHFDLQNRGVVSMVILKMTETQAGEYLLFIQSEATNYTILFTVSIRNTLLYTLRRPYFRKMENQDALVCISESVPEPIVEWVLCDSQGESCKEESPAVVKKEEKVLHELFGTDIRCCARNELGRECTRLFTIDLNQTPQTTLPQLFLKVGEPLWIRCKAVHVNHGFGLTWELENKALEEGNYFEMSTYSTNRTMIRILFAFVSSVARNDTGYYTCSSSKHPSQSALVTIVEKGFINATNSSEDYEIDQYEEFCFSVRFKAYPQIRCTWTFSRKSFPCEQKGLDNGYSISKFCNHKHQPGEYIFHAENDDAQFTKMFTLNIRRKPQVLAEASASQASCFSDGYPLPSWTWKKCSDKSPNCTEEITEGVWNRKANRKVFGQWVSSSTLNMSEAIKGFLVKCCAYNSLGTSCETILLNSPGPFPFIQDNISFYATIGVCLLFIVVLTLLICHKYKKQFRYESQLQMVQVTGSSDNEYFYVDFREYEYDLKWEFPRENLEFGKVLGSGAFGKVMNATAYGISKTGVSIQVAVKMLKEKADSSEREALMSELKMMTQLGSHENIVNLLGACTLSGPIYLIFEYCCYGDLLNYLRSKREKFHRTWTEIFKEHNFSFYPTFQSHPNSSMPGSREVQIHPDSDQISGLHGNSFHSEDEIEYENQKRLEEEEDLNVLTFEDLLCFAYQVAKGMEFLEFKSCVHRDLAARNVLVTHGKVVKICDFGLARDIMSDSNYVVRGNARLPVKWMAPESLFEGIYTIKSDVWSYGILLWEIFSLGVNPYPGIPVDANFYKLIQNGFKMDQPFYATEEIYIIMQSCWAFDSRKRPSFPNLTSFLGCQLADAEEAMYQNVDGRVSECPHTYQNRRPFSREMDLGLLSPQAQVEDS
T1 sequence (P23443 whole entry): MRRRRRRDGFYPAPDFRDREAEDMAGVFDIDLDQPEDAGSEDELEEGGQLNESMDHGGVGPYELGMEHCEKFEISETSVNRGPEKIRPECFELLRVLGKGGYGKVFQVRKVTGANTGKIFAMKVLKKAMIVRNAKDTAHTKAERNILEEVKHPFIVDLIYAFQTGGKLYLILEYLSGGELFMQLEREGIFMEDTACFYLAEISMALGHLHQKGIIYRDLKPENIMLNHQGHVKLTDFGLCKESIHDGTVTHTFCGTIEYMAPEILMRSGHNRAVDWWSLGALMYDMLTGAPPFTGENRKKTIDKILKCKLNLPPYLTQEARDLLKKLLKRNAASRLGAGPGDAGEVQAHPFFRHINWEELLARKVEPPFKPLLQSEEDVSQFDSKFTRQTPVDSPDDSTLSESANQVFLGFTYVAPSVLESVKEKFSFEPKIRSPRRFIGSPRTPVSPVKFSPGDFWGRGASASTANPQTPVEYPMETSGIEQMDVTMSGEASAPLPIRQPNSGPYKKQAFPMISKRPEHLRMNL

Regarding `Cn1cnc([N+](=O)[O-])c1Sc1ncnc2nc[nH]c12` [NCGC00015060-18], the “IC50/EC50, Hela CellCycMod PI 2N (assay number 14)” value in assay [1] (2N) was > 10 µM. Besides, in [1] (4N), the “IC50/EC50, Hela CellCycMod PI 4N (assay number 16)” value is listed as > 10 µM. Besides, in assay [1], the “IC50/EC50, Hela CellCycMod PI Cell Number (assay number 18)” value is on record as > 10 µM and the “IC50/EC50, Hela CellCycMod PI S Phase (assay number 15)” value is listed as > 10 µM. For the same compound, the “IC50/EC50, Hela CellCycMod PI MI (assay number 17)” value in [1] (MI) is > 10 µM. For the same compound, the “IC50/EC50, Basal_Viability ATP DLD-1 (assay number 23)” value in assay [2] stood at 0.3635 µM. Also, the “IC50/EC50, Basal_Viability ATP SW480 (assay number 24)” value in assay [3] came out at 9.4353 µM. For the same compound, the “IC50/EC50, Basal_Viability ATP HCT116 (assay number 25)” value in [4] is given as 0.2074 µM. In addition, the “IC50/EC50, GSK3b inh pretreated_Viability ATP HCT116 (assay number 26)” value in assay [5] worked out at 0.6232 µM. For the same compound, the “IC50/EC50, Basal_Viability ATP Colo 320 (assay number 27)” value in assay [6] was found to be 10.3402 µM. Moreover, the “IC50/EC50, Basal_Viability ATP HT-29 (assay number 28)” value in assay [7] is on record as > 20 µM. The “IC50/EC50, Basal_Viability ATP RKO (assay number 29)” value in assay [8] turned out to be 2.661 µM. Further, in assay [9], the “IC50/EC50, Basal_Viability ATP SNU-C1 (assay number 30)” value is recorded as > 20 µM. In addition, in [10], the “IC50/EC50, hp70S6K1 LANCE (assay number 31)” value was > 20 µM. In addition, the “IC50/EC50, hKDR LANCE (assay number 32)” value in assay [11] is recorded as > 20 µM. In addition, the “IC50/EC50, hJAK2 LANCE (assay number 33)” value in assay [12] is on record as > 20 µM. For the same compound, the “IC50/EC50, hGSK3b LANCE (assay number 34)” value in assay [13] is reported as > 20 µM. In assay [14], the “IC50/EC50, hFLT3 LANCE (assay number 35)” value is given as > 20 µM.
For the compound `O=c1[nH]c(=O)n([C@H]2C[C@H](O)[C@@H](CO)O2)cc1F` [NCGC00023722-08], the “IC50/EC50, VEGF_ADSC\ECFC Angio CD31 TubeArea (assay number 2)” value in [15] was determined as 0.0216 µM. The “IC50/EC50, Hela CellCycMod PI 2N (assay number 14)” value in assay [1] (2N) was > 10 µM. Further, the “IC50/EC50, Hela CellCycMod PI 4N (assay number 16)” value in [1] (4N) was > 10 µM. For the same compound, in assay [1], the “IC50/EC50, Hela CellCycMod PI Cell Number (assay number 18)” value is > 10 µM and the “IC50/EC50, Hela CellCycMod PI S Phase (assay number 15)” value is listed as 0.1688 µM. Also, the “IC50/EC50, Hela CellCycMod PI MI (assay number 17)” value in [1] (MI) was > 10 µM. Further, the “IC50/EC50, Basal_Viability ATP DLD-1 (assay number 23)” value in assay [2] came to 0.001 µM. Besides, the “IC50/EC50, Basal_Viability ATP SW480 (assay number 24)” value in assay [3] is > 20 µM. Besides, the “IC50/EC50, Basal_Viability ATP HCT116 (assay number 25)” value in assay [4] was 0.001 µM. The “IC50/EC50, GSK3b inh pretreated_Viability ATP HCT116 (assay number 26)” value in assay [5] is 0.001 µM. Further, the “IC50/EC50, Basal_Viability ATP Colo 320 (assay number 27)” value in assay [6] is > 20 µM. For the same compound, the “IC50/EC50, Basal_Viability ATP HT-29 (assay number 28)” value in assay [7] is on record as > 20 µM. Also, the “IC50/EC50, Basal_Viability ATP RKO (assay number 29)” value in assay [8] was found to be 0.001 µM. Besides, the “IC50/EC50, Basal_Viability ATP SNU-C1 (assay number 30)” value in [9] is > 20 µM. Further, in assay [10], the “IC50/EC50, hp70S6K1 LANCE (assay number 31)” value is > 20 µM. In [11], the “IC50/EC50, hKDR LANCE (assay number 32)” value is recorded as > 20 µM. In assay [12], the “IC50/EC50, hJAK2 LANCE (assay number 33)” value is > 20 µM. Besides, the “IC50/EC50, hGSK3b LANCE (assay number 34)” value in assay [13] is reported as > 20 µM. The “IC50/EC50, hFLT3 LANCE (assay number 35)” value in [14] was > 20 µM. For the same compound, the “IC50/EC50, VEGF_ADSC\ECFC Angio Hoechst NucArea (assay number 3)” value in [16] is recorded as > 10 µM.
For `S=c1nc[nH]c2nc[nH]c12` [NCGC00094717-06], the IC50 in [15] (read-out: VEGF_ADSC\ECFC Angio CD31 TubeArea summarized IC50) was 0.915 µM; in [1] (assay number 14, 2N, read-out: Hela CellCycMod PI 2N summarized IC50), > 10 µM; in assay [1] (assay number 16, 4N, read-out: Hela CellCycMod PI 4N summarized IC50) it was > 10 µM; in [1] (assay number 17, MI, read-out: Hela CellCycMod PI MI summarized IC50), > 10 µM; in assay [1] (assay number 18, cell number, read-out: Hela CellCycMod PI Cell Number summarized IC50), > 10 µM; in assay [2] (assay number 23, read-out: Basal_Viability ATP DLD-1 summarized IC50), 0.26 µM. The IC50 came out at 1.04 µM in assay [3] (assay number 24, read-out: Basal_Viability ATP SW480 summarized IC50); 0.259 µM in assay [4] (assay number 25, read-out: Basal_Viability ATP HCT116 summarized IC50); 1.42 µM in assay [5] (assay number 26, GSK3b inhibitor pretreated, read-out: GSK3b inh pretreated_Viability ATP HCT116 summarized IC50); 1.3 µM in assay [6] (assay number 27, read-out: Basal_Viability ATP Colo 320 summarized IC50); 0.635 µM in assay [7] (assay number 28, read-out: Basal_Viability ATP HT-29 summarized IC50); 0.659 µM in assay [8] (assay number 29, read-out: Basal_Viability ATP RKO summarized IC50). In addition, the IC50 in assay [9] (assay number 30, read-out: Basal_Viability ATP SNU-C1 summarized IC50) was > 20 µM; in [10] (assay number 31, read-out: hp70S6K1 LANCE summarized IC50), > 20 µM; in assay [11] (assay number 32, read-out: hKDR LANCE summarized IC50), > 20 µM; in assay [12] (assay number 33, read-out: hJAK2 LANCE summarized IC50), > 20 µM; in assay [13] (assay number 34, read-out: hGSK3b LANCE summarized IC50) it was > 20 µM; in assay [14] (assay number 35, read-out: hFLT3 LANCE summarized IC50), > 20 µM. For the same compound, the IC50 in assay [16] (read-out: VEGF_ADSC\ECFC Angio Hoechst NucArea summarized IC50) is > 10 µM.
